Source: ChEMBL document CHEMBL1201862, “PubChem BioAssay data set” (2004)
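Assay format: 96-well plates, 48-hour exposure. At the GI50, growth is halved.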 Active and inactive are the calls of the source. Cut-off read from the data, not from the text of the source: active = GI50 up to about 1.1 µM and inactive = higher.

Experiments:
Test in all cases: NCI-60 cell line screen, 48 h
HT-29 = tested on: HT-29
T47D = tested on: T47D
SN12C = tested on: SN12C
LOX IMVI = tested on: LOX IMVI
SR = tested on: SR
U-251 = tested on: U-251
A549 = tested on: A549
HOP-62 = tested on: HOP-62
M14 = tested on: M14
IGROV-1 = tested on: IGROV-1
MOLT-4 = tested on: MOLT-4
EKVX = tested on: EKVX
SW-620 = tested on: SW-620
TK-10 = tested on: TK-10
HL-60 = tested on: HL-60
HOP-92 = tested on: HOP-92
SNB-75 = tested on: SNB-75
SF-295 = tested on: SF-295
MDA-MB-435 = tested on: MDA-MB-435
HCT-15 = tested on: HCT-15

| SMILES | GI50 (HT-29) | GI50 (T47D) | GI50 (SN12C) | GI50 (LOX IMVI) | GI50 (SR) | GI50 (U-251) | GI50 (A549) | GI50 (HOP-62) | GI50 (M14) | GI50 (IGROV-1) | GI50 (MOLT-4) | GI50 (EKVX) | GI50 (SW-620) | GI50 (TK-10) | GI50 (HL-60) | GI50 (HOP-92) | GI50 (SNB-75) | GI50 (SF-295) | GI50 (MDA-MB-435) | GI50 (HCT-15) |
| --- | --- | --- | --- | --- | --- | --- | --- | --- | --- | --- | --- | --- | --- | --- | --- | --- | --- | --- | --- | --- |
| CCOc1ccccc1NC(=O)C(=O)C(/C(=N/N)C(=O)OC)c1nc2ccc([N+](=O)[O-])cc2nc1O (stereo not given) | > 100 µM (inactive) | > 100 µM (inactive) | > 100 µM (inactive) | > 100 µM (inactive) | > 100 µM (inactive) | > 100 µM (inactive) | > 100 µM (inactive) | > 100 µM (inactive) | > 100 µM (inactive) | 28.5 µM (inactive) | 59.8 µM (inactive) | 97.5 µM (inactive) | > 100 µM (inactive) | > 100 µM (inactive) | > 100 µM (inactive) | 46 µM (inactive) | 71.4 µM (inactive) | > 100 µM (inactive) | > 100 µM (inactive) | > 100 µM |
| CCCCCCCC1(N=[N+]=[N-])C(=O)c2ccccc2N(C)C1=O (stereo not given) | 40.1 µM (inactive) | 68.9 µM (inactive) | > 100 µM (inactive) | 97.1 µM (inactive) | > 100 µM (inactive) | > 100 µM (inactive) | 68.5 µM (inactive) | > 100 µM (inactive) | > 100 µM (inactive) | > 100 µM (inactive) | > 100 µM (inactive) | > 100 µM (inactive) | > 100 µM (inactive) | > 100 µM (inactive) | 54.1 µM (inactive) | 22.5 µM (inactive) | > 100 µM (inactive) | > 100 µM (inactive) | 89.9 µM (inactive) | > 100 µM |
| CC(C)(C)OC(=O)C(C1NC(C(=O)O)C(C)(C)S1)N1C(=O)c2ccccc2C1=O (stereo not given) | > 100 µM (inactive) | > 100 µM (inactive) | > 100 µM (inactive) | > 100 µM (inactive) | > 100 µM (inactive) | > 100 µM (inactive) | > 100 µM (inactive) | > 100 µM (inactive) | > 100 µM (inactive) | > 100 µM (inactive) | > 100 µM (inactive) | > 100 µM (inactive) | > 100 µM (inactive) | > 100 µM (inactive) | > 100 µM (inactive) | > 100 µM (inactive) | > 100 µM (inactive) | > 100 µM (inactive) | > 100 µM (inactive) | > 100 µM |
| O=C(NCCCCCCCCNC(=O)c1cc(-c2ccccc2)nc2ccccc12)c1cc(-c2ccccc2)nc2ccccc12 | > 100 µM (inactive) | > 100 µM (inactive) | > 100 µM (inactive) | > 100 µM (inactive) | > 100 µM (inactive) | 35.3 µM (inactive) | > 100 µM (inactive) | 38.8 µM (inactive) | > 100 µM (inactive) | > 100 µM (inactive) | > 100 µM (inactive) | > 100 µM (inactive) | > 100 µM (inactive) | > 100 µM (inactive) | > 100 µM (inactive) | > 100 µM (inactive) | 38.6 µM (inactive) | > 100 µM (inactive) | > 100 µM (inactive) | > 100 µM |
| CCOC(=O)CCC(NC(=O)c1ccc(OCc2nc3ccccc3n3cccc23)cc1)C(=O)OCC (stereo not given) | 25.5 µM (inactive) | 20 µM (inactive) | > 100 µM (inactive) | 42.8 µM (inactive) | 9.62 µM (inactive) | 17.3 µM (inactive) | > 100 µM (inactive) | 38 µM (inactive) | 63.2 µM (inactive) | 31.6 µM (inactive) | 1.65 µM (inactive) | > 100 µM (inactive) | 11.6 µM (inactive) | > 100 µM (inactive) | 11.5 µM (inactive) | 45.6 µM (inactive) | 29.2 µM (inactive) | 64.3 µM (inactive) | 80.4 µM (inactive) | 50.6 µM |
| c1ncc(C23C4C5C6C4C2C6C53)[nH]1 (stereo not given) | > 100 µM (inactive) | > 100 µM (inactive) | > 100 µM (inactive) | > 100 µM (inactive) | > 100 µM (inactive) | > 100 µM (inactive) | > 100 µM (inactive) | > 100 µM (inactive) | > 100 µM (inactive) | > 100 µM (inactive) | > 100 µM (inactive) | > 100 µM (inactive) | > 100 µM (inactive) | > 100 µM (inactive) | > 100 µM (inactive) | > 100 µM (inactive) | > 100 µM (inactive) | > 100 µM (inactive) | > 100 µM (inactive) | > 100 µM |
| CC(C(=O)n1ccnc1)N1c2ccccc2Sc2ccccc21 (stereo not given) | 90.4 µM (inactive) | 39.5 µM (inactive) | 96.6 µM (inactive) | 82.8 µM (inactive) | 50.1 µM (inactive) | 64.4 µM (inactive) | > 100 µM (inactive) | 67.5 µM (inactive) | 77.3 µM (inactive) | > 100 µM (inactive) | 43 µM (inactive) | 88.3 µM (inactive) | > 100 µM (inactive) | > 100 µM (inactive) | 91.8 µM (inactive) | 25.1 µM (inactive) | 40.6 µM (inactive) | > 100 µM (inactive) | > 100 µM (inactive) | 97.5 µM |
| COc1ccc(-c2c(-c3ccccc3)c(C)c3ccccn23)cc1 | 33.4 µM (inactive) | 22.8 µM (inactive) | > 100 µM (inactive) | 83.6 µM (inactive) | 26.4 µM (inactive) | > 100 µM (inactive) | 87.3 µM (inactive) | > 100 µM (inactive) | > 100 µM (inactive) | > 100 µM (inactive) | 59.6 µM (inactive) | 99.5 µM (inactive) | 58.9 µM (inactive) | > 100 µM (inactive) | 48.4 µM (inactive) | > 100 µM (inactive) | > 100 µM (inactive) | > 100 µM (inactive) | 52.2 µM (inactive) | 56.9 µM |
| Cc1cc2c(c(/C=N/c3ccccc3O)c1)OC1(C=C2)Oc2ccccc2C(=O)N1C (stereo not given) | 16.6 µM (inactive) | 1.57 µM (inactive) | 20.9 µM (inactive) | 12.8 µM (inactive) | 15.8 µM (inactive) | 18.2 µM (inactive) | 21.7 µM (inactive) | 18.8 µM (inactive) | 15.5 µM (inactive) | 21.5 µM (inactive) | 13.5 µM (inactive) | 14 µM (inactive) | 22.3 µM (inactive) | 16.8 µM (inactive) | 27 µM (inactive) | 11.8 µM (inactive) | 18.6 µM (inactive) | 24.7 µM (inactive) | 22.6 µM (inactive) | 15.9 µM |
| Clc1cc(Cl)cc(/C=N/C23CC4CC(CC(C4)C2)C3)c1 | > 10 µM (inactive) | > 10 µM (inactive) | > 10 µM (inactive) | > 10 µM (inactive) | > 10 µM (inactive) | > 10 µM (inactive) | > 10 µM (inactive) | > 10 µM (inactive) | > 10 µM (inactive) | > 10 µM (inactive) | > 10 µM (inactive) | > 10 µM (inactive) | > 10 µM (inactive) | > 10 µM (inactive) | > 10 µM (inactive) | > 10 µM (inactive) | > 10 µM (inactive) | > 10 µM (inactive) | > 10 µM (inactive) | > 10 µM |
| COc1ccccc1N1C(=O)/C(=C\c2cccc(Oc3ccccc3)c2)SC1c1ccccc1 (stereo not given) | 32.4 µM (inactive) | 27.2 µM (inactive) | 30.2 µM (inactive) | 21.6 µM (inactive) | 19.6 µM (inactive) | 38.4 µM (inactive) | 34.3 µM (inactive) | 73.3 µM (inactive) | 24.4 µM (inactive) | 21.1 µM (inactive) | 31 µM (inactive) | 15.9 µM (inactive) | 17.8 µM (inactive) | > 100 µM (inactive) | < 0.01 µM (active) | 21.1 µM (inactive) | 39.6 µM (inactive) | 18.7 µM (inactive) | 28.6 µM (inactive) | 47.2 µM |
| Oc1cccc2c1[nH]c1c(C3=C[C@@]4(O)CC/C=C\CCCCN5CC[C@@H]3[C@]3(CC6/C=C\CCCCN6[C@H]34)C5)nccc12 (stereo not given in full) | 0.796 µM (active) | 0.804 µM (active) | 0.891 µM (active) | 0.736 µM (active) | 0.578 µM (active) | 1.08 µM (active) | 2.04 µM (inactive) | 0.764 µM (active) | 0.966 µM (active) | 1.02 µM (active) | 0.64 µM (active) | 1.23 µM (inactive) | 1.43 µM (inactive) | 1.9 µM (inactive) | 0.667 µM (active) | 0.226 µM (active) | 0.946 µM (active) | 1.75 µM (inactive) | 0.798 µM (active) | 0.718 µM |
| CC(NNC(=O)c1cc[n+]([BH2-]C#N)cc1)c1ccc(Cl)c(Cl)c1 (stereo not given) | 17.5 µM (inactive) | 23.3 µM (inactive) | 34.5 µM (inactive) | 28.9 µM (inactive) | 36 µM (inactive) | 40.2 µM (inactive) | 32.5 µM (inactive) | 45 µM (inactive) | 38.1 µM (inactive) | 38.5 µM (inactive) | 25.9 µM (inactive) | 30.1 µM (inactive) | 45.1 µM (inactive) | 28.6 µM (inactive) | 25.8 µM (inactive) | 20.6 µM (inactive) | 34.8 µM (inactive) | 29.6 µM (inactive) | 34.8 µM (inactive) | 31.6 µM |
| CSc1ccc(/C=C2\N=C(c3ccccc3)N(c3nc4c(Cl)cc(Cl)cc4s3)C2=O)cc1 | 19.8 µM (inactive) | 38.5 µM (inactive) | 24.8 µM (inactive) | 29.9 µM (inactive) | 20.9 µM (inactive) | 17.1 µM (inactive) | 21.4 µM (inactive) | 18.1 µM (inactive) | 25.7 µM (inactive) | 35.3 µM (inactive) | 18.6 µM (inactive) | 13.6 µM (inactive) | 29.4 µM (inactive) | 39.2 µM (inactive) | 21.6 µM (inactive) | 32.8 µM (inactive) | 36.6 µM (inactive) | 24.3 µM (inactive) | 16.6 µM (inactive) | 28.5 µM |
